Earlier results as cited in publication PMC4405790 (Pharmaceutical research, 2012).
Entries after “also recorded” stand apart in the source; their conditions may differ.

Tests used:
[1] = aqueous

Cc1cc(C)cc(C(=O)c2c(C(C)C)c(=O)[nH]c(=O)n2CC2CC2)c1 [IQP-0528, 1-(3-Cyclopropyl)methyl-6-(3,5-dimethylbenzoyl)-5-isopropyl-2,4(1H,3H)-pyrimidinedione]
activity against laboratory strains of virus (HIV): nanomolar
activity against representative clinical strains of HIV (HIV): nanomolar to subnanomolar
level of activity as a NNRTI (HIV; cell-based in vitro assays): subnanomolar
level of activity as inhibitor of a step in virus entry (HIV; cell-based in vitro assays): nanomolar
solubility [1]: low solubility; also recorded: very low solubility
